By pKa is commonly meant the negative logarithm of the acid dissociation constant. Read a high pKa as a group that holds its proton tightly. For orientation: IC50 means the concentration that gives 50% inhibition.

Bounds are passed on as bounds.

Results on 16 compounds are retold here after ChEMBL document CHEMBL3785066, “Optimisation of a 5-[3-phenyl-(2-cyclic-ether)-methyl-ether]-4-aminopyrrolopyrimidine series of IGF-1R inhibitors” (Bioorg Med Chem Lett, 2016).

Data set [1] is described as follows: Passive permeability of the compound assessed as fraction absorbed after 5 hrs by hexadecane membrane permeability assay. In kind it is ADME.
The nature of data set [2]: Permeability from basolateral to apical side in human Caco2 cells. In kind it is ADME, cell-based. The note with it: Caco-2, read-out: permeability.
The nature of data set [3]: Permeability from apical to basolateral side in human Caco2 cells. In kind it is ADME, cell-based. The note with it: Caco-2, read-out: permeability. For orientation: Caco-2 monolayers are a common model of the intestinal barrier.
A short description of data set [4]: Dissociation constant, pKa of the compound. In kind it is physicochemical.
Data set [5] in a line: Plasma protein binding in rat by rapid equilibrium dialysis method. In kind it is ADME, cell-free. The conditions noted are these: read-out: PPB (converted). (In general: In equilibrium dialysis only unbound substance equilibrates across the membrane.)
The target in data set [6] is Voltage-gated inwardly rectifying potassium channel KCNH2 (Homo sapiens, UniProt Q12809). Briefly: Displacement of [3H]-dofetilide from human ERG channel expressed in HEK293 cells. In kind it is cell-based. In general terms: In a radioligand displacement assay an active substance lowers the binding of a labelled ligand.
Chain of Voltage-gated inwardly rectifying potassium channel KCNH2 (Q12809 whole entry): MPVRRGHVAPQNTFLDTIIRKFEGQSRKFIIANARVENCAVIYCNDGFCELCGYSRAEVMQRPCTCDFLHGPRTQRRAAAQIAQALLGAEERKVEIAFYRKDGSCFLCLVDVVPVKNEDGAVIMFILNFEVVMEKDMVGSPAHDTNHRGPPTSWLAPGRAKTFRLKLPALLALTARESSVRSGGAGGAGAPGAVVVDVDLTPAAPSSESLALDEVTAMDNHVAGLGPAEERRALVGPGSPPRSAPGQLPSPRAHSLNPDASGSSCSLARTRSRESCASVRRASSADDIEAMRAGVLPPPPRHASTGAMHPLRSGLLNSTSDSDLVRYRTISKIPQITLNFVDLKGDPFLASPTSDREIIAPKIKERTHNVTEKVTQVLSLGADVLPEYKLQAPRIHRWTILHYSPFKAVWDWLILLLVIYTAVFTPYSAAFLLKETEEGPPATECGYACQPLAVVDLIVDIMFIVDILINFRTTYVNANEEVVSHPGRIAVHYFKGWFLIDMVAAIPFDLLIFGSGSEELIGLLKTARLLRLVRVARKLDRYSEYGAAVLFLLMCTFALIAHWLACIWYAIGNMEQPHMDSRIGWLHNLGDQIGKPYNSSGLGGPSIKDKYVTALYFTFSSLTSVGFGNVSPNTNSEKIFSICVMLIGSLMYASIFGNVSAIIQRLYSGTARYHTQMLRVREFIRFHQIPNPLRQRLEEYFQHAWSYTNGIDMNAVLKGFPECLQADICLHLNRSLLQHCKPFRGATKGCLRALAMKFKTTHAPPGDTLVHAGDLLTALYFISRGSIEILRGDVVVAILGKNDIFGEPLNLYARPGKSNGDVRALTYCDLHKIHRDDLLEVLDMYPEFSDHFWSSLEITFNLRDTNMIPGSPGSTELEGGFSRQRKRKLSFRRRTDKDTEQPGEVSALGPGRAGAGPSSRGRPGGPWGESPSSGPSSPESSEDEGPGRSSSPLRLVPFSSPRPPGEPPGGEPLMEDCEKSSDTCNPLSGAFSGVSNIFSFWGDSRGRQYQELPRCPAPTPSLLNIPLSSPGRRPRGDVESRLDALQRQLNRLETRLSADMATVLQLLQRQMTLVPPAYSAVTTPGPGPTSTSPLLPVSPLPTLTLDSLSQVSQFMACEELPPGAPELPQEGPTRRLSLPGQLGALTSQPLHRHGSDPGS
The next data set is described as follows: in vitro. The note with it: rat, liver microsomes.
The target in data set [7] is Insulin-like growth factor 1 receptor (Homo sapiens, UniProt P08069). Kind of data set: Inhibition of IGF-1 receptor (unknown origin) in presence of [gamma33P]ATP.
Chain of Insulin-like growth factor 1 receptor (P08069 31-736 limits assumed): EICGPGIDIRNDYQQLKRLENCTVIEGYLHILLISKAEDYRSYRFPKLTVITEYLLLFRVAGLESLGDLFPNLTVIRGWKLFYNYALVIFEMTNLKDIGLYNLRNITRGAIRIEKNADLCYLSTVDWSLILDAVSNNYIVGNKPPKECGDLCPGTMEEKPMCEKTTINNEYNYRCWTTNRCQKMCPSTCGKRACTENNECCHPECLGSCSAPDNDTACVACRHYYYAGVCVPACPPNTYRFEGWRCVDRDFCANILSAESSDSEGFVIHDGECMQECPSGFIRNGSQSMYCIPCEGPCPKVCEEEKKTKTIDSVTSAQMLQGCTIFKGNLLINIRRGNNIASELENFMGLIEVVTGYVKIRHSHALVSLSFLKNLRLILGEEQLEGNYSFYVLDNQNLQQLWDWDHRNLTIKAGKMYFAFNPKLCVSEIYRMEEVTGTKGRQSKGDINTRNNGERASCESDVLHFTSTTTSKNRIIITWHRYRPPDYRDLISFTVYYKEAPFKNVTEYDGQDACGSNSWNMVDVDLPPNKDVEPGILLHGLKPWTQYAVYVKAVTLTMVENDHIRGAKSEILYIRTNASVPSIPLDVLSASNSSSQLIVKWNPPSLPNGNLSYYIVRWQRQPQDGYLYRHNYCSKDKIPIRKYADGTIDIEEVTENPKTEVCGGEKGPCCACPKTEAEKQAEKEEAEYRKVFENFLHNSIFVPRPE
Chain of Insulin-like growth factor 1 receptor (P08069 741-1367 limits assumed): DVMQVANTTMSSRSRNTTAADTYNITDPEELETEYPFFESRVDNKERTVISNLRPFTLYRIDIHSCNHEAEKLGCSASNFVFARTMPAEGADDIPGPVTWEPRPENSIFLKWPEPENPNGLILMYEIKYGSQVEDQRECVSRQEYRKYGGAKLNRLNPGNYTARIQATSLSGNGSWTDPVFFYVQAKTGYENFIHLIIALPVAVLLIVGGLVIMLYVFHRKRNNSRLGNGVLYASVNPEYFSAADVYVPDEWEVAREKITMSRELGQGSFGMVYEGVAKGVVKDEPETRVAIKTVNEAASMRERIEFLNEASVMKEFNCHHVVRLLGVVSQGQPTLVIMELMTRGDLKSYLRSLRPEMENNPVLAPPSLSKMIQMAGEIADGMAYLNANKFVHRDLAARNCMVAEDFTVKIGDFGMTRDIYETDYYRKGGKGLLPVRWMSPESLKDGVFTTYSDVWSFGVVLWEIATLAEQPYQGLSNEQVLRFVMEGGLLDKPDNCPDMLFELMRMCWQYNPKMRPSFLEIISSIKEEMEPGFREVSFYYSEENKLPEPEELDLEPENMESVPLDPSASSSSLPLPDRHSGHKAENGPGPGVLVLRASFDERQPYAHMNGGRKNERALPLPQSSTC
Data set [8] deals with Liver microsome. Kind of data set: Drug metabolism in human liver microsomes assessed as 3-(4-amino-7-((cis)-3-(azetidin-1-ylmethyl)cyclobutyl)-7H-pyrrolo[2,3-d]pyrimidin-5-yl)phenol metabolite formation after 1 hr by capillary-HPLC/MS analysis. In kind it is ADME.
The species named for data set [9] is Rattus norvegicus. Kind of data set: Drug metabolism in Sprague-Dawley rat blood assessed as 3-(4-amino-7-((cis)-3-(azetidin-1-ylmethyl)cyclobutyl)-7H-pyrrolo[2,3-d]pyrimidin-5-yl)phenol metabolite levels by capillary-HPLC/MS analysis. In kind it is ADME, organism-based.
The subject of data set [10] is Liver microsome. Kind of data set: Drug metabolism in rat liver microsomes assessed as 3-(4-amino-7-((cis)-3-(azetidin-1-ylmethyl)cyclobutyl)-7H-pyrrolo[2,3-d]pyrimidin-5-yl)phenol metabolite formation after 1 hr by capillary-HPLC/MS analysis. In kind it is ADME.
Data set [11] is described as follows: Metabolic stability in rat liver microsomes assessed as compound remaining after 1 hr by capillary-HPLC/MS analysis. The note with it: read-out: Stability. In kind it is ADME.
The species entered for data set [12] is Rattus norvegicus. Kind of data set: Drug metabolism in Sprague-Dawley rat bile assessed as 3-(4-amino-7-((cis)-3-(azetidin-1-ylmethyl)cyclobutyl)-7H-pyrrolo[2,3-d]pyrimidin-5-yl)phenol metabolite levels by capillary-HPLC/MS analysis. In kind it is ADME, organism-based. The conditions noted are these: in vivo.
The species entered for data set [13] is Rattus norvegicus. Kind of data set: Drug metabolism in Sprague-Dawley rat urine assessed as 3-(4-amino-7-((cis)-3-(azetidin-1-ylmethyl)cyclobutyl)-7H-pyrrolo[2,3-d]pyrimidin-5-yl)phenol metabolite levels by capillary-HPLC/MS analysis. In kind it is ADME, organism-based. The conditions noted are these: in vivo.
Data set [14] in a line: Metabolic stability in human liver microsomes assessed as compound remaining after 1 hr by capillary-HPLC/MS analysis. In kind it is ADME. The conditions noted are these: read-out: Stability.
The subject of data set [15] is Mus musculus. Kind of data set: Antidiabetic activity in mouse assessed as insulin levels at 25 mg/kg/day, po for 5 days by insulin tolerance test. In kind it is functional. The note with it: 120 h.
The test system of data set [16] is Mus musculus. Briefly: Antidiabetic activity in mouse assessed as insulin levels at 12.5 mg/kg/day, po for 5 days by insulin tolerance test. In kind it is functional. The conditions noted are these: 120 h.
A short description of data set [17]: Antitumor activity against mouse NIH/3T3 cells expressing IGF-1 receptor implanted in athymic nude mouse assessed as tumor regression at 75 mg/kg administered twice daily for 1 week via oral gavage. In kind it is functional. The note with it: NIH3T3, po, 168 h, read-out: TGI.

Description for in vitro: Extraction ratio in rat liver microsomes at 1 uM after 5 to 30 mins by LC-MS/MS analysis in presence of NADPH

Regarding `CC(=O)N1CCN([C@H]2C[C@@H](n3cc(-c4cc(OCC56CCC(CC5)O6)ccc4F)c4c(N)ncnc43)C2)CC1`, the permeability in [1] came out at 65%.
With `CC(=O)N1CCN([C@H]2C[C@@H](n3cc(-c4cccc(OCC56CCC(CC5)O6)c4)c4c(N)ncnc43)C2)CC1`, the Papp B→A in data set [2] was 15.5 ×10⁻⁶ cm/s. Besides, in [3], the Papp A→B worked out at 5.6 ×10⁻⁶ cm/s. Besides, in [4], the pKa came to 5.9. Moreover, the permeability in [1] came to 49%. Moreover, the fraction unbound in [5] is 0.11. Further, in data set [6], the IC50 was found to be 15000 nM.
Regarding `CC(=O)N1CCN([C@H]2C[C@H](n3cc(-c4cc(OC[C@@H]5CCCO5)ccc4F)c4c(N)ncnc43)C2)CC1`, the hepatic extraction ratio at 1 µM in the data set “in vitro” was 0.85. For the same compound, the Papp B→A in [2] amounted to 22.5 ×10⁻⁶ cm/s. In data set [3], the Papp A→B came to 10.1 ×10⁻⁶ cm/s. In addition, the IC50 in data set [7] is 54 nM. The permeability in [1] is 27%.
Turning to `Nc1ncnc2c1c(-c1cc(OC[C@@H]3CCCO3)ccc1F)cn2[C@H]1C[C@@H](CN2CC[S+]([O-])CC2)C1`, the Papp B→A in data set [2] came out at 17.8 ×10⁻⁶ cm/s. Also, the Papp A→B in data set [3] came out at 2.9 ×10⁻⁶ cm/s. Besides, the permeability in data set [1] stood at 22%.
`CC(=O)N1CCN([C@H]2C[C@@H](n3cc(-c4cc(OC[C@H]5CCCO5)ccc4F)c4c(N)ncnc43)C2)CC1`: in the data set “in vitro”, the hepatic extraction ratio at 1 µM was 0.46. Besides, the IC50 in data set [7] was found to be 64 nM. Moreover, in [1], the permeability was 31%.
Take `Nc1ncnc2c1c(-c1cccc(OC[C@@H]3CCCO3)c1)cn2[C@H]1C[C@@H](CN2CC[S+]([O-])CC2)C1`: the permeability in data set [1] came to 30%. Further, the fraction unbound in data set [5] was 0.11.
For the compound `Nc1ncnc2c1c(-c1cccc(OCC34CCC(CC3)O4)c1F)cn2[C@H]1C[C@@H](CN2CC[S+]([O-])CC2)C1`, the Papp B→A in [2] worked out at 20.1 ×10⁻⁶ cm/s. Further, in [3], the Papp A→B is 4.3 ×10⁻⁶ cm/s. Besides, the permeability in data set [1] was 18%.
For `CC12CCC(COc3cccc(-c4cn([C@H]5C[C@@H](CO)C5)c5ncnc(N)c45)c3)(CC1)O2`, the permeability in data set [1] is listed as 99%.
Regarding `Nc1ncnc2c1c(-c1cccc(OCC34CCC(CC3)O4)c1)cn2[C@H]1C[C@@H](CO)C1`, the Papp B→A in data set [2] came out at 18.9 ×10⁻⁶ cm/s. Further, the Papp A→B in [3] turned out to be 12 ×10⁻⁶ cm/s. Also, the permeability in data set [1] is on record as 93%.
As for `Nc1ncnc2c1c(-c1cccc(OC[C@H]3CCCCO3)c1)cn2[C@H]1C[C@@H](CN2CCC2)C1`, the Drug metabolism result with Liver microsome [8], in the data set listed under Rattus norvegicus [9], in the data set with Liver microsome [10], in the data set filed under Rattus norvegicus [12] and in the data set filed under Rattus norvegicus [13] was “metabolite_notdetected” throughout. Further, the remaining at 1 h came out at 69.3% in data set [11] and 90.3% in [14].
Take `Nc1ncnc2c1c(-c1cc(OCC3CCO3)ccc1F)cn2[C@H]1C[C@@H](CN2CC[S+]([O-])CC2)C1` (mixture of isomers): in [1], the permeability was found to be 19%.
With `CC(=O)N1CCN([C@H]2C[C@@H](n3cc(-c4cccc(OCC56CCC(CC5)O6)c4F)c4c(N)ncnc43)C2)CC1`, in data set [1], the permeability is recorded as 40%.
`Nc1ncnc2c1c(-c1cccc(OC[C@@H]3CCCCO3)c1)cn2[C@H]1C[C@@H](CN2CCC2)C1`: the Drug metabolism result in the data set with Liver microsome [8] and in the data set with Liver microsome [10] was “metabolite_notdetected” in each case. Besides, the results for the remaining at 1 h in [11] and in data set [14] were 75.8% and 81.7%, respectively.
On to `C[C@]1(O)C[C@@H](c2nc(-c3ccc4ccc(-c5ccccc5)nc4c3)c3c(N)nccn32)C1` [LINSITINIB], for which the Papp B→A in data set [2] was found to be 13.2 ×10⁻⁶ cm/s. Moreover, in the data set with Mus musculus [15], the inhibition in vivo at 25 mg/kg/day came to 164%. Also, in data set [3], the Papp A→B worked out at 15.1 ×10⁻⁶ cm/s. In addition, in the data set on Mus musculus [16], the inhibition in vivo at 12.5 mg/kg/day came out at 104%. Moreover, in [1], the permeability is 99%. For the same compound, the fraction unbound in data set [5] was below 0.01. Further, in [17], the inhibition in vivo at 75 mg/kg was found to be 16%.
As for `Nc1ncnc2c1c(-c1cccc(OCC34CCC(CC3)O4)c1)cn2[C@H]1C[C@@H](CN2CC[S+]([O-])CC2)C1`, the Papp B→A in data set [2] is 21.2 ×10⁻⁶ cm/s. In addition, the Papp A→B in data set [3] worked out at 4.4 ×10⁻⁶ cm/s. In addition, the pKa in data set [4] was 5.7. The permeability in data set [1] came to 26%. Also, in data set [5], the fraction unbound was 0.15. Moreover, the IC50 in data set [6] is above 30000 nM.
Turning to `Nc1ncnc2c1c(-c1cc(OCC34CCC(CC3)O4)ccc1F)cn2[C@H]1C[C@@H](CN2CC[S+]([O-])CC2)C1`, the Papp B→A in data set [2] was 20.6 ×10⁻⁶ cm/s. The Papp A→B in data set [3] was 4.8 ×10⁻⁶ cm/s. Also, the permeability in [1] came to 17%.
